Legend:
[1] = Peracetic acid in treatment solution by ABTS (Example 13); assay type: biochemical; conditions: after 30 min treatment
Description: (§1) Determination of the peracetic acid (PAA) concentration in the reaction mixtures by a colorimetric method was performed according to the method described by Dinu et. al. (supra). A reagent solution of 1 mM 2,2′-azino-bis(3-ethylbenzothiazoline)-6-sulfonate (ABTS), 50 μM potassium iodide in 125 mM potassium citrate buffer at pH 5.0 was prepared. […] The solution was analyzed for absorbance at 405 nm using a Microplate reader. A comparison of relative amounts of peracetic acid in solution was determined by comparing absorbance values directly.
(§2) Bovine enamel incisors were prepared as indicated in Example 1. Stained bovine enamel blocks were hydrated in water at least 1 h prior to use to stabilize the color of the substrate. The color for each enamel block was measured after hydration prior to the start of the experiment. Two enamel samples were treated for each solution type. The solutions used were a buffer only control, 0.1% Peracetic Acid, a perhydrolase composition including 0.52 μM EZ-7 (C277S with enamel binding domain; SEQ ID NO: 429), 100 mM triacetin and 32.6 mM H2O2. All solutions were prepared in 100 mM sodium phosphate buffer, pH 7.2. All solutions were freshly prepared for each treatment point. The enzyme-triacetin-H2O2 combination was mixed immediately before enamel exposure. After each treatment step, each enamel block was rinsed with water and a color measurement was obtained. A treatment time of 30 min was repeated 4 times for each set of enamel substrates. The concentration of peracetic acid in solution after a 30 min treatment was evaluated by colorimetric detection of ABTS oxidation.

[2] = Peracetic acid in treatment solution by ABTS absorbance (Example 12); assay type: biochemical; conditions: 1:100 dilution into ABTS reagent
Excerpt: (§3) The purpose of this example is to show the tooth bleaching effect of enzymatic generated peracetic acid in a one-step application and compare to the performance achieved with chemically derived peracetic acid. Two methods were developed to use a perhydrolytic enzyme (CE-7 perhydrolase) system to achieve the target level of tooth bleaching. The first method (referred to herein as the “one-step approach”) comprises combining different amounts of at least one CE-7 perhydrolase with triacetin (an example of a suitable ester substrate) and hydrogen peroxide to generate peracetic acid using model stained enamel substrates. Bovine enamel incisors were prepared as indicated in Example 1. Stained bovine enamel blocks were hydrated in water at least 1 hr prior to use to stabilize the color of the substrate. The color for each enamel block was measured after hydration prior to the start of the experiment. Three enamel samples were treated for each solution type. The solutions used were a buffer only control, 2.5% H2O2, 1% peracetic acid, a perhydrolase composition including 10 μM EZ-1 (C277S; SEQ ID NO: 424), 100 mM triacetin and 250 mM H2O2 and a no enzyme control of 100 mM triacetin and 250 mM H2O2. All solutions were prepared in 500 mM sodium phosphate buffer, pH 7.2. The high buffer strength was necessary to maintain the 1% peracetic acid solution at neutral pH. All solutions were freshly prepared for each treatment point. The enzyme-triacetin-H2O2 combination and triacetin-H2O2 combination was mixed immediately before enamel exposure. After each treatment step, each enamel block was rinsed with water and a color measurement was obtained. A total treatment time of 61 min was used with durations of exposure of 1 min, 5 min, 10 min, 15 min and 30 min. The concentration of peracetic acid in solution after the 1 min, 10 min and 30 min treatments was evaluated by colorimetric detection of ABTS oxidation.
as §1

[3] = Peracetic acid vs hydrogen peroxide bleaching of coffee/tea stained bovine enamel (whiteness index); conditions: for ΔWI: 0 to 61 min; for Whiteness Index 0 min: before exposure
Excerpt: This example describes the use of peracetic acid to achieve a bleaching effect on model stained enamel surfaces. Bovine enamel incisors were obtained from SE Dental (Baton Rouge, La.). Teeth were sectioned and cut into enamel slabs approximately 7 mm on each side using a DREMEL® rotary saw (Robert Bosch Power Tool Corporation; Chicago, Ill.) with a diamond blade. The enamel slabs were cleaned and lightly polished to remove surface debris. The enamel was pretreated with a mixture of coffee and tea for 1-5 days in order to stain to a color similar to human stained teeth.
Each enamel block was hydrated in water for at least 1 hr prior to use. Color measurements for the substrate were obtained prior to exposure to test solutions. Solutions of peracetic acid were prepared from a 32% stock in 500 mM sodium phosphate buffer, pH 7.2. A solution of 2.5% H2O2 was also prepared in the same buffer. Multiple enamel blocks were exposed to each solution for 1 min followed by additional exposures of 5 min, 10 min, 15 min and 30 min. For each treatment, a fresh solution of peracetic acid and hydrogen peroxide was prepared from the stock solutions. After each treatment the enamel blocks were rinsed with water and measured with a Konica-Minolta 2600d spectrophotometer.
(§4) Whiteness index (WI) is defined by the International Commission on Illumination (CIE) and described in ASTM method E313-05 and calculated for D65/10 incident light as: WI=Y+800*(0.3138−x)+1700*(0.3310−y) Where Y, x, and y are the luminance factor and the chromaticity coordinates respectively of the enamel substrate.

[4] = One-step bleaching of stained bovine enamel with targeted perhydrolase (Example 13); conditions: 0.1% PAA
Description: as §4, §2

[5] = One-step bleaching of stained bovine enamel with perhydrolase system (Example 12)
Excerpt: as §4, §3

Question: For `CC(=O)OO` [PAA, peracetic acid], which “PAA (ppm)” value [1] is on record?
Answer: 920 ppm

Question: And the “Absorbance 405 nm Tooth2” value ([1]; 1:10 dilution into ABTS reagent)?
Answer: 1.043

Question: What about the “Absorbance 405 nm Tooth1” value ([1]; 1:10 dilution into ABTS reagent, 0.1% PAA or 0.52 μM EZ-7/100 mM triacetin/32.6 mM H2O2) of the same compound?
Answer: 1.103

Question: And the “Absorbance 405 nm, 1 min” value ([2]; peracetic acid at end of 1 min treatment)?
Answer: 2.579

Question: And the “Absorbance 405 nm, 10 min” value ([2]; peracetic acid at end of 10 min treatment)?
Answer: 1.863

Question: What about the “Absorbance 405 nm, 30 min” value ([2]; peracetic acid at end of 30 min treatment) of the same compound?
Answer: 2.874

Question: What about the ΔWI ([3]; Table 1, 2.5% H2O2 or 0.5% PAA) of the same compound?
Answer: 90.8

Question: What about the “Whiteness Index 1 min” value ([3]; Table 1, 2.5% H2O2 or 0.5% PAA, cumulative exposure 1 min) of the same compound?
Answer: −111.6

Question: And the “Whiteness Index 6 min” value ([3]; Table 1, 2.5% H2O2 or 0.5% PAA, cumulative exposure 6 min)?
Answer: −80.7

Question: What about the “Whiteness Index 16 min” value ([3]; Table 1, 2.5% H2O2 or 0.5% PAA, cumulative exposure 16 min) of the same compound?
Answer: −56.5

Question: And the “Whiteness Index 31 min” value ([3]; Table 1, 2.5% H2O2 or 0.5% PAA, cumulative exposure 31 min)?
Answer: −44.5

Question: And the “Whiteness Index 61 min” value ([3]; Table 1, 2.5% H2O2 or 0.5% PAA, cumulative exposure 61 min)?
Answer: −38.3

Question: And the “Whiteness Index 0 min” value ([3]; Table 1, 2.5% H2O2 or 0.5% PAA, 500 mM sodium phosphate pH 7.2)?
Answer: −129.1

Question: And the “Whiteness Index 1 min” value ([3]; Table 2, 0.05% PAA)?
Answer: −97.1

Question: And the “Whiteness Index 6 min” value ([3]; Table 2, 0.05% PAA)?
Answer: −93.1

Question: What about the “Whiteness Index 16 min” value ([3]; Table 2, 0.05% PAA) of the same compound?
Answer: −70.1

Question: What about the “Whiteness Index 31 min” value ([3]; Table 2, 0.05% PAA) of the same compound?
Answer: −59.0

Question: And the “Whiteness Index 61 min” value ([3]; Table 2, 0.05% PAA)?
Answer: −34.7

Question: And the ΔWI ([3]; Table 2, 0.05% PAA)?
Answer: 68.7

Question: What about the “Whiteness Index 0 min” value ([3]; Table 2, 0.05% PAA) of the same compound?
Answer: −103.4

Question: What about the “Whiteness Index 1 min” value ([3]; Table 2, 0.2% PAA) of the same compound?
Answer: −85.5

Question: And the “Whiteness Index 6 min” value ([3]; Table 2, 0.2% PAA)?
Answer: −67.0

Question: And the “Whiteness Index 16 min” value ([3]; Table 2, 0.2% PAA)?
Answer: −47.5

Question: And the “Whiteness Index 31 min” value ([3]; Table 2, 0.2% PAA)?
Answer: −31.7

Question: What about the “Whiteness Index 61 min” value ([3]; Table 2, 0.2% PAA) of the same compound?
Answer: −16.2

Question: What about the ΔWI ([3]; Table 2, 0.2% PAA) of the same compound?
Answer: 74.4

Question: What about the “Whiteness Index 0 min” value ([3]; Table 2, 0.2% PAA) of the same compound?
Answer: −90.6

Question: And the “Whiteness Index 1 min” value ([3]; Table 2, 0.5% PAA)?
Answer: −86.6

Question: What about the “Whiteness Index 6 min” value ([3]; Table 2, 0.5% PAA) of the same compound?
Answer: −64.1

Question: And the “Whiteness Index 16 min” value ([3]; Table 2, 0.5% PAA)?
Answer: −46.4

Question: And the “Whiteness Index 31 min” value ([3]; Table 2, 0.5% PAA)?
Answer: −32.7

Question: And the “Whiteness Index 61 min” value ([3]; Table 2, 0.5% PAA)?
Answer: −24.7

Question: And the ΔWI ([3]; Table 2, 0.5% PAA)?
Answer: 72.8

Question: What about the “Whiteness Index 0 min” value ([3]; Table 2, 0.5% PAA) of the same compound?
Answer: −97.5

Question: What about the “Whiteness Index 1 min” value ([3]; Table 2, 1% PAA) of the same compound?
Answer: −89.3

Question: And the “Whiteness Index 16 min” value ([3]; Table 2, 1% PAA)?
Answer: −36.0

Question: What about the “Whiteness Index 31 min” value ([3]; Table 2, 1% PAA) of the same compound?
Answer: −20.6

Question: And the “Whiteness Index 61 min” value ([3]; Table 2, 1% PAA)?
Answer: −5.1

Question: And the ΔWI ([3]; Table 2, 1% PAA)?
Answer: 97.7

Question: And the “Whiteness Index 0 min” value ([3]; Table 2, 1% PAA)?
Answer: −102.8

Question: And the “bleaching of stained enamel (in words)” value ([3]; compared to buffer and hydrogen peroxide controls)?
Answer: effective bleaching agent

Question: And the “Whiteness Index 30 min” value [4]?
Answer: −101.9

Question: What about the “Whiteness Index 60 min” value [4] of the same compound?
Answer: −91.9

Question: And the “Whiteness Index 90 min” value [4]?
Answer: −80.2

Question: What about the “Whiteness Index 120 min” value [4] of the same compound?
Answer: −70.8

Question: And the ΔWI ([4]; 0 to 120 min)?
Answer: 55.0

Question: And the “Whiteness Index 0 min” value ([4]; before treatment, 100 mM sodium phosphate pH 7.2, average of two substrates)?
Answer: −125.8

Question: And the “Whiteness Index 0 min” value ([5]; before treatment, 2.5% H2O2, 100 mM triacetin/250 mM H2O2, 1% PAA, 10 μM EZ-1/100 mM triacetin/250 mM H2O2, pH 7.2)?
Answer: −145.7

Question: And the ΔWI ([5]; one-step, 0 to 61 min)?
Answer: 86.3

Question: What about the “Whiteness Index 1 min” value ([5]; one-step, cumulative treatment 1 min) of the same compound?
Answer: −119.6

Question: And the “Whiteness Index 6 min” value ([5]; one-step, cumulative treatment 6 min)?
Answer: −73.4

Question: What about the “Whiteness Index 16 min” value ([5]; one-step, cumulative treatment 16 min) of the same compound?
Answer: −62.9

Question: What about the “Whiteness Index 31 min” value ([5]; one-step, cumulative treatment 31 min) of the same compound?
Answer: −59.0

Question: What about the “Whiteness Index 61 min” value ([5]; one-step, cumulative treatment 61 min) of the same compound?
Answer: −59.4

Reference: US8663616B2, “Enzymatic peracid generation for use in oral care products” (E I du Pont de Nemours and Company, priority 2010, dated 2014)
